Reference: patent US20050289663A1, “Method of constructing orchid haploid by treating unfertilized orchid flower with auxin and method of growing orchid” (SAPPORO BREWERIES LIMITED, priority 2002, published 2005)

Assays:
Zygopetalum = settings: given to stigma of Zygopetalum; cited from earlier work
[1] = tested on: Bletilla. Brigantes “H5-11”; assay: Auxin treatment of unfertilized orchid flowers: parthenogenetic seed formation, germination and ploidy check (flow cytometry, chromosome count); assay type: in vivo
Protocol: In the first embodiment, Bletilla. Brigantes “H5-11” was used. The supplied testing plants were grown in the conventional method. The blooming was affirmed, pollens were removed and a treatment of dropping of 10 micro liter was performed with the warmed lanolin paste which contains 2% of α-naphthaleneacetic acid at column using the syringe. Since two or more flowers might exist in the same inflorescence, the above-mentioned treatment was performed about for each one repeatedly five or more times. After individuals in which its ovary got fat are ripened completely (6 to 7 months after the treatment), then they were obtained, they were sterilized their surface for 5 minutes with 0.5% of sodium hydrochlorite solution, planted them on a medium in germfree container, and the germination was forced. After planting, when the number of planted seeds and the number of seed with embryo were observed, 11 seeds with embryo were observed out of 7000 of the planted total number of seeds. […] After plants originating in auxin treatment grew in the suitable size for sampling (1 to 2 months after germination), DNA contents of these plants originating in auxin treatment were measured by flow cytometry, then chromosomes were observed simultaneously and the number of chromosomes was investigated. The investigation was done by obtaining new leaf of seedling, plants treated with α-naphthaleneacetic acid (NAA) of the present invention were investigated and also plants originating in self-pollination were investigated as a comparison. FIG. 2 is views showing results of analysis based on flow cytometry. FIG. 3 is views showing observation results of chromosomes under a microscope.

**Q.** Which induction of parthenogenesis (Zygopetalum) does the source give for `O=C(O)Cc1cccc2ccccc12` [α-naphthaleneacetic acid] here?
**A.** parthenogenesis has been induced

**Q.** And the “number of chromosomes of the plant originating in auxin treatment” value ([1]; 1 to 2 months after germination, microscope, 32 chromosomes for Bletilla Bringantes)?
**A.** 16

**Q.** What about the “DNA amount by flow cytometry: peak position versus plant originating in self-pollination” value ([1]; 1 to 2 months after germination, new leaf of seedling) of the same compound?
**A.** half ploidy level

**Q.** And the “buds of plants originating in auxin treatment observed in the seeds with embryo” value ([1]; 2 weeks after planting of seeds, from the 11 seeds with embryo)?
**A.** 8

**Q.** And the “DNA contents by flow cytometry: peak position versus plants originating in self-pollination” value ([1]; 5 to 6 months after germination)?
**A.** almost same position

**Q.** And the “number of seeds with embryo” value ([1]; out of 7000 of the planted total number of seeds, 10 micro liter lanolin paste containing 2% α-naphthaleneacetic acid dropped at column of unfertilized flower)?
**A.** 11
